Experimental data from patent US20220152077A1 (THE UNIVERSITY OF WARWICK, priority 2019, published 2022).
“Also recorded” adds a separate entry of the source.

What was measured:
[1] = system: synaptic transmission in spinal nociceptive afferents; test: Dorsal root afferent-evoked EPSPs in dorsal horn neurones, rat spinal cord slices; type: cell-based; settings: rat lumbar spinal cord slices, 0.1 Hz
Description: Spinal cord slice preparation: Adult male Sprague-Dawley rats, aged 8-12 weeks (260-280 g), were housed in an air-conditioned room on a 12 hour light/dark cycle with food and water available ad libitum. Rats were terminally anaesthetized using isofluorane and decapitated. […] A laminectomy was performed and the spinal cord and associated roots gently dissected and teased out of the spinal column and surrounding tissues. Dura and pia mater and ventral roots were subsequently removed with fine forceps and the spinal cord hemisected. Care was taken to ensure dorsal root inputs to the spinal cord were maintained. The hemisected spinal cord-dorsal root preparations were secured to a tissue slicer and spinal cord slices (400-450 μm thick) with dorsal roots attached cut in chilled (<4° C.) high sucrose aCSF using a Leica VT1000s microtome. Slices were transferred to a small beaker containing ice-cold standard aCSF (see below) and rapidly warmed to 35±1° C. in a temperature-controlled water bath over a 20 minute period, then subsequently removed and maintained at room temperature (22±2° C.) prior to electrophysiological recording.
Spinal cord electrophysiological recording: For electrophysiological recording, a spinal cord slice was transferred to a custom-built chamber. […]

[2] = system: isolated frog heart; test: Frog heart preparation, heart rate; design: species or system Xenopus leavis; settings: adenosine 30 μM, BnOCPA 300 nM
Description: Frog heart preparation: Xenopus […] frogs (young adult males) were supplied from Portsmouth Xenopus Resource Centre. Frogs were euthanized with MS222 (0.2% at a pH of 7), decapitated and pithed. The animals were dissected to reveal the heart and the pericardium carefully removed. Heart contractions were measured with a force transducer (AD instruments). Heart rate was acquired via a PowerLab […] (AD instruments) controlled by LabChart 7 (AD instruments). The heart was regularly washed with ringer and drugs were applied directly to the heart.

[3] = system: membrane potential of pyramidal cells; test: Whole cell current clamp recording of membrane potential, CA1 pyramidal cells; type: cell-based, rat
Description: (§1) Preparation of hippocampal slices: Sagittal slices of hippocampus (300-400 μm) were prepared from male Sprague Dawley rats, at postnatal days 12 to 20. Rats were kept on a 12-hour light-dark cycle with slices made 90 minutes after entering the light cycle. […] The brain was removed, cut down the mid line and the two sides of the brain stuck down to a metal base plate. […] Slices were stored at 34° C. for 1 to 6 hours in aCSF (1 mM MgCl2, 2 mM CaCl2) before use.
Whole cell patch clamp recording from hippocampal pyramidal cells: A slice was transferred to the recording chamber and perfused at 3 mL/min with aCSF at 32±0.5° C. Slices were visualised using IR-DIC optics with an Olympus BX151W microscope (Scientifica) and a CCD camera (Hitachi). […] Voltage and current recordings were obtained using an Axon Multiclamp 700B amplifier (Molecular Devices, USA) and digitised at 20 KHz. Data acquisition and analysis was performed using Pclamp 10 (Molecular Devices). For voltage clamp experiments, CA1 pyramidal cells were held at −60 mV. Peptides to interfere with G protein signalling were introduced via the patch pipette into the recorded cell.

[4] = system: Goa; type: cell-based, human; settings: PTX-treated cells
Description: (§2) Cells were then incubated for 24 hours before addition of 100 ng/ml PTX, to inhibit activity of endogenous Gαi/o, and then incubated for a further 16-18 hours. Transfected cells were then assayed as per cAMP inhibition experiments, but co-stimulated with agonist and 100 nM forskolin.
(§3) Data Analysis. […] Statistical significance was tested as indicated in the text using paired or unpaired t-tests or one-way or two-way ANOVAs with repeated measures (RM) as appropriate. Bonferroni corrections for multiple comparisons were performed. All in vitro cell signalling assay data was analysed using Prism 7.0e (Graphpad software, San Diego, Calif.), with all concentration-response curves being fitted using a 3 parameter logistic equation to calculate response range and IC50. All cAMP data was normalised to a forskolin concentration-response curve ran in parallel to each assay. […] Radioligand displacement curves were fitted to the one-site competition binding equation yielding log Ki values. […] To determine the extent of ligand-induced recruitment of β-arrestin2-YFP to either the A1R or A3R, the BRET signal was calculated by subtracting the 530 nm/450 nm emission for vehicle-treated cells from ligand-treated cells (ligand-induced ΔBRET). ΔBRET for each concentration at 5 minutes (maximum response) was used to produce concentration-response curves.

[5] = biological target: T1, human (h) A1R (Homo sapiens, UniProt P30542); test: Radioligand binding, [3H]DPCPX, membranes of CHO-K1-hA1R cells; settings: displacement of [3H]DPCPX
T1 sequence (P30542 1-326): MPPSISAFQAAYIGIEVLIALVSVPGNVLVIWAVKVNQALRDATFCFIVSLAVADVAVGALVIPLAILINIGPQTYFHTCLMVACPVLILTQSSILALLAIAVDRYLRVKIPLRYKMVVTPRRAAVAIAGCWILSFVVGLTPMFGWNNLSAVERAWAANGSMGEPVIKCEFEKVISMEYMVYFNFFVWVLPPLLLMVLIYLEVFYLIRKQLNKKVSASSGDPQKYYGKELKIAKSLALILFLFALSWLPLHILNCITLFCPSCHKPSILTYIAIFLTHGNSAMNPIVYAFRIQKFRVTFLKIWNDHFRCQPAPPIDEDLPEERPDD
Description: Radioligand binding. Radioligand displacement assays were conducted using crude membrane preparations (100 μg protein per tube) acquired from homogenisation of CHO-K1-hA1R cells in ice-cold buffer (2 mM MgCl2, 20 mM HEPES, pH 7.4). […] Non-specific binding was determined in the presence of 10 μM DPCPX. […] Free radioligand was separated from bound radioligand by filtration through Whatman® glass microfiber GF/B 25 mm filters (Sigma-Aldrich). Each filter was then placed in a Sterilin™ scintillation vial and radioactivity determined by: addition of 4 mL of Ultima Gold XR liquid scintillant (PerkinElmer), overnight incubation at room temperature and the retained radioactivity determined using a Beckman Coulter LS 6500 Multi-purpose scintillation counter (Beckman Coulter Inc.; Indiana, USA).
Data Analysis. […] Statistical significance was tested as indicated in the text using paired or unpaired t-tests or one-way or two-way ANOVAs with repeated measures (RM) as appropriate. Bonferroni corrections for multiple comparisons were performed. All in vitro cell signalling assay data was analysed using Prism 7.0e (Graphpad software, San Diego, Calif.), with all concentration-response curves being fitted using a 3 parameter logistic equation to calculate response range and IC50. All cAMP data was normalised to a forskolin concentration-response curve ran in parallel to each assay. […]

[6] = biological target: T2, human A1R (Homo sapiens, UniProt P30542); test: BRET assay for β-arrestin2 recruitment in HEK 293 cells; type: cell-based; settings: data not shown
T2 sequence (P30542 1-326): T1 sequence (P30542 1-326)
Description: as §3

[7] = system: seizure activity induced in hippocampal slices; test: Seizure model in hippocampal slices (no added Mg2+, 6 mM K+ aCSF); type: cell-based, rat; settings: adenosine 20-100 μM, NECA 300 nM, CPA 300 nM, BnOCPA 300 nM to 1 μM
Description: as §1
Seizure model: Seizure activity was induced in hippocampal slices using aCSF which contained no added Mg^2+ and with the total K^+ concentration increased to 6 mM with KCl. Removal of extracellular Mg^2+ facilitates NMDA receptor activation producing long lasting EPSPS, which can sum together to produce tonic activation. Increasing the extracellular concentration of K^+ depolarises neurons leading to firing and release of glutamate to sustain activity. Both the increase in K^+ concentration and removal of Mg^2+ are required to produce spontaneous activity in hippocampal slices. Spontaneous activity was measured with an aCSF-filled microelectrode placed within stratum radiatum in CA1.

[8] = system: synaptic transmission in the hippocampus; test: Extracellular fEPSP recording in hippocampal slices (synaptic transmission); type: cell-based, rat; settings: rat hippocampal slices, CA1; read-out: IC50, inhibition of synaptic transmission (fEPSP slope)
Description: as §1
Extracellular recording: A slice was transferred to the recording chamber, submerged in aCSF and perfused at 4 to 6 mL/min (32° C.). The slice was placed on a grid allowing perfusion above and below the tissue and all tubing was gas tight (to prevent loss of oxygen). For extracellular recording, an aCSF filled microelectrode was placed on the surface of stratum radiatum in CA1. […] For fEPSPs a 10 to 20 minute baseline was recorded at a stimulus intensity that gave 40 to 50% of the maximal response. […] For fEPSP slope, a 1 ms linear region after the fibre volley was measured. Extracellular recordings were made independently on two electrophysiology rigs.
Statistical significance was tested using the unpaired t-test and one-way and two-way ANOVAs with Bonferroni correction for multiple comparisons.
as §3

[9] = system: urethane-anaesthetised, spontaneously breathing adult rats; test: In vivo anaesthetised rat preparation, respiration
Description: In vivo anaesthetised rat preparation for cardiorespiratory recordings: Anaesthesia was induced in adult male Sprague Dawley rats (230-330 g) with isofluorane (2-4%; Piramal Healthcare). The femoral vein was catheterised for drug delivery. Anaesthesia was maintained with urethane (1.2-1.7 g/kg; Sigma) in sterile saline delivered via the femoral catheter. The femoral artery was catheterised and connected to a pressure transducer (Digitimer) to record arterial blood pressure. […] The rats were then allowed to stabilise before the experiments began. […] Arterial blood pressure recordings were used to derive heart rate (HR: beats·minute^−1; BPM), and to calculate mean arterial blood pressure (MAP: Diastolic pressure+⅓*[Systolic Pressure−Diastolic pressure]). Airflow measurements were used to calculate: tidal volume (VT; mL; pressure sensors were calibrated with a 3 mL syringe), and respiratory frequency (f; breaths·min-1; BrPM). Minute ventilation (VE; mL·min-1) was calculated as f×VT.
Adult male Sprague Dawley rats (400-500 g) were anaesthetised with urethane and instrumented as described above, with the exception that the arterial cannulation was not performed.
After a 20 minutes recovery period CPA (6.3 μg·kg^−1) was administered. All injections were administered IV as a 350 μl·kg^−1 bolus. Changes in f, VT, and VE were measured. If the dosing occurred close to a respiratory event such as a sigh a second IV dose was administered, with 20 minute recovery periods either side of the injection.
One-way ANOVAs, with repeated measures as appropriate, and with Bonferroni correction for multiple comparisons were used. Statistical significance for the effects of IV saline was tested using paired t-tests. Data are reported throughout as mean±SEM and n values are reported for each experiment. […] The significance level was set at P<0.05, with actual P values reported in the figure legends and summaries, by way of abbreviations and asterisks, on the graphs: ns, not significant; * P<0.05; **, P<0.02; ***, P<0.001; ****, P<0.0001.

[10] = system: urethane-anaesthetised, spontaneously breathing adult rats; test: In vivo anaesthetised rat preparation, heart rate and mean arterial blood pressure; settings: IV; adenosine 1 mg·kg^−1, BnOCPA 10 μg·kg^−1, CPA 420 ng·kg^−1
[11] = system: Gob; test: cAMP accumulation in PTX-pre-treated CHO-K1-hA1R cells transfected with PTX-insensitive Gob; type: cell-based, human
Description: as §2, §3

[12] = IV bolus, BnOCPA 8.3 ug/kg, CPA 6.3 μg·kg^−1

With OC[C@H]1O[C@@H](n2cnc3c(NC4CCCC4)ncnc32)[C@H](O)[C@@H]1O [CPA, N-Cyclopentyladenosine] as the compound, how does the “effect on dorsal root afferent-evoked EPSPs” value [1] read?
Its value is “significant reduction in amplitude of the EPSPs in CPA, comparable to that of BnOCPA”.

What about the “effect on isolated frog heart rate” value [2] of the same compound?
Its value is “reduced the isolated frog heart rate similar to adenosine”.

And the “reduction / change of heart rate” value ([2]; CPA)?
The value was 6.2±0.5 BPM.

What about the “mean hyperpolarisation by CPA in the presence of BnOCPA” value ([3]; CPA 300 nM after BnOCPA 300 nM, 10 minutes) of the same compound?
Its value is 2.7±2 mV.

What about the “membrane potential after agonist” value ([3]; adenosine 100 μM, CPA 300 nM) of the same compound?
The value was −71.3±1.4 mV.

And the “mean change of membrane potential (hyperpolarisation)” value ([3]; adenosine 100 μM, CPA 300 nM, BnOCPA 300 nM-1 μM)?
Its value is −7.3±0.85 mV.

And the “effect on membrane potential” value ([3]; example traces, CA1 pyramidal cells)?
Its value is “hyperpolarised the membrane potential”.

What about the “activation of / coupling to Goa” value [4] of the same compound?
Its value is “coupled to a range of Gi/o subunits, and in particular Goa”.

And the “binding affinity at the A1R (comparison)” value [5]?
Its value is “equal affinity”.

And the “β-arrestin recruitment at the A1R” value [6]?
The value was “no β-arrestin recruitment”.

And the “effect on seizure activity” value [7]?
Its value is “completely suppressed neuronal firing; also recorded: abolished seizure activity”.

And the IC50 [8]?
The IC50 was 11.8 ± 2.7 nM.

And the “minute ventilation (VE) after injection” value [9, 12]?
The value was 99 ± 19 mL/min.

What about the “respiratory frequency (f) after injection” value [9, 12] of the same compound?
The value was 108±10 BrPM.

And the “tidal volume (VT) after injection” value [9, 12]?
The value was 0.8 ± 0.1 mL.

What about the effect on respiration ([9]; intravenous injection) of the same compound?
The effect on respiration was “caused significant respiratory depression”.

What about the “change of HR” value [10] of the same compound?
Its value is “about 50%”.

What about the “heart rate (HR) after injection” value [10] of the same compound?
Its value is 207±29 BPM.

And the “mean arterial blood pressure (MAP) after injection” value [10]?
Its value is 51±5 mmHg.

What about the “inhibition of cAMP accumulation via Gob” value [11] of the same compound?
Its value is “inhibit cAMP accumulation through coupling to Gob”.
